# Legend:
# [1] = system: pulmonary fibrosis mice induced by bleomycin; experiment: Content determination of hydroxyproline in lung tissue (Embodiment 4); assay type: in vivo, C57BL/6 mice; details: 30 mg/kg and 60 mg/kg, prevention groups and treatment groups (FIG. 7); lower dose slightly better
# Protocol: (§1) Female C57BL/6 mice (eight-week-old) are established for models after 7 days, the time is set for the mice to adapt to the environment. After fasts for overnight, the mice are anaesthetized by 3% chloral hydrate and fixed. Sterilize and incise neck skin longitudinally as little injury as possible. Split fascia and muscle with tweezers longitudinally and expose the windpipe. Then, about 35 μl (3.5 mg/kg) bleomycin are injected into windpipe with microinjector. Put the mice upright rapidly and rotate the mice for 3˜5 minutes, so that bleomycin is able to enter into the pulmones uniformly. Observe the breathing of mice. Sterilize neck injury with 75% alcohol tampon and stitch the wound, then 1 drop or 2 drops of benzylpenicillin injection is/are dripped into the suture. Put the mice back into dry and clean cages, and feed them normally after waking up. Operations are done on operating table at about […]. Physiological saline using in injection is injected into windpipe of sham operation group.
# (§2) Model animals are divided into prevention groups and treatment groups, then drugs are given to the two groups respectively. According to internationally methods of drug administration, drugs are given continuously to the prevention groups by means of intragastric administration from the second day after successfully establishing model to the 14th day, and drugs are given continuously to treatment groups by means of intragastric administration from the 8th day after successfully establishing model to the 21th day. Groups and dosage regimen are shown in tab.1.
# Hydroxyproline mainly exists in collagen protein, but there is only a very small amounts in elastin proteins and it cannot found in other proteins. Therefore the content of collagen protein can be indicated by measuring the content of hydroxyproline, so as to evaluate the degree of pulmonary fibrosis. Method of test kit (which is purchased from Nanjing Jiancheng Biological Technology Co., Ltd.) according to specification is used in determination of hydroxyproline. Results can be seen in FIG. 7.
# [2] = system: pulmonary fibrosis mice induced by bleomycin; experiment: HE stained pathological evaluation and inflammation scores (Embodiment 4); assay type: in vivo, C57BL/6 mice
# Protocol: as §1, §2
# After the last intragastric administration, the mice are anaesthetized and killed to collect the lung tissue. Immerse the left lobule in 10% formalin, and embed it by paraffin after being fixed, then cut it into slices to observe the pathological changes by HE staining. As is shown in FIG. 3, structures of lobules of sham operation group are normal and the alveolar walls are complete without inflammation and fibrosis pathological changes. Obvious inflammation injury and masses of tissue begin to appear in lung of mice in model group, then the normal lung tissue disappears and alveolar is blocked. […] The groups with lower dose (30 mg/kg) of the 3 compounds show better effect than the groups with higher dose. The pulmonary inflammation disappears and alveolar structure is clear in groups with lower dose.
# Inflammatory classification semi quantitative statistics analysis is made according to results of HE staining. Grade 0 represents normal tissue or minimal inflammation change. Grade 1 (+) represents mild to moderate inflammation change, and lung tissue without obvious damage. Grade 2 (++) represents moderate to severe inflammation injury, and alveolar septum is thickened to form masses of tissue, or lung tissue with damage caused by partial area inflammation. Grade 3 (+++) represents severe inflammation injury, and structure of restricted regions in lung tissue is severely damaged, thus resulting in obliteration. […] The groups with lower dose show better effect than the groups with higher dose. In general, the 3 compounds have better effect in decreasing the pulmonary inflammation than the positive drug pirfenidone.
# TGF-β1 [3] = experiment: ELISA content determination of TGF-β1 in mice lung tissue (Embodiment 4); assay type: in vivo, C57BL/6 mice; details: 30 mg/kg and 60 mg/kg, prevention groups and treatment groups, versus model group (FIG. 8); lower dose more effective
# Protocol: as §1, §2
# TGF-β1 is a universally recognized strong pro-fibrotic cytokine. It can stimulate the cells to synthesize and secrete extracellular matrix as well as exchange the activity of matrix-degrading enzyme component and directly increase the deposition of ECM. The progress of pulmonary fibrosis can be slowed down by decreasing the content of TGF-β1 in lung tissue. Elisa test kit (which is purchased from Shanghai Excell Biological Technology Co., Ltd.) according to specification is used in the determination of TGF-β1 in mice lung tissue. Results can be seen in FIG. 8.
# [4] = system: cough of guinea pig induced by citric acid; details: cited from earlier work
# [5] = system: pulmonary fibrosis mice induced by bleomycin; experiment: Activity of 8 alkaloids and pentoxyverine against pulmonary fibrosis in mice (Embodiment 3); assay type: in vivo, C57BL/6 mice; details: intragastric from first day after model to 21th day; alkaloids and pentoxyverine 30 mg/kg (FIG. 1B, 1C)
# Protocol: as §1
# Experimental mice are randomly divided into 12 groups: 10 mice in model group, 10 mice in pentoxyverine group, and 5 mice in any other group. Group 1 is sham operation group, group 2 is model group, group 3 is pentoxyverine group, group 4 is positive drug pirfenidone group, groups 5-12 are compounds I-VIII administration group respectively. Models of groups 2-12 are established by using bleomycin with the same method used in embodiment 2. From the first day after successfully establishing model, 30 mg/kg pentoxyverine and 300 mg/kg pirfenidone are given to group 3 and group 4 by means of intragastric administration respectively. 30 mg/kg compounds I-VIII are given to groups 5-12 also by means of intragastric administration respectively. Besides, same doses of solvent are given to sham operation group and model group until the 21th day. After the last intragastric administration, the mice are killed to collect the lung tissue, and the right lobule is used for determining the content of hydroxyproline, while the left lobule is used for preparing pathological sections.
# [6] = system: pulmonary fibrosis mice induced by bleomycin; experiment: Masson stained pathological evaluation and imaging analysis of collagen (Embodiment 4); assay type: in vivo, C57BL/6 mice
# Protocol: as §1, §2
# Masson staining is a method aiming at specific staining of fibrillar collagen. After the last intragastric administration, the mice are anaesthetized and killed to collect the lung tissue. Immerse the left lobule in 10% formalin, and embed it by paraffin after being fixed, then is cut it into slices to observe the collagen deposition by Masson staining. Semi quantitative analysis is made by using Image-Pro Plus6.0. Integrated optical density (IOD) of collagen in each visual field is measured after Masson staining. 5 samples are studied in each group and 5 visual fields are picked out from each group. Statistics analysis is made by calculating mean value which is considered as relative amount of collagen in each group.
# cough reflex pathway = details: in vivo; cited from earlier work
# [7] = system: pulmonary fibrosis mice induced by bleomycin; experiment: Determination of mice mortality (Embodiment 4); assay type: in vivo, C57BL/6 mice
# Protocol: as §1, §2
# From the 0th day (the day when the model is established) to 14th day, drugs are given continuously to prevention groups. From the 8th day after successfully establishing model to 21th day, drugs are given continuously to treatment groups. Statistical analysis of death of animals in each group is carried on every day and the survival rate of animals in each group is calculated. Results are shown in tab.2.
# [8] = system: pulmonary fibrosis mice induced by bleomycin; experiment: Detection of the mice lung index (Embodiment 4); assay type: in vivo, C57BL/6 mice; details: 30 and 60 mg/kg, prevention groups and treatment groups, versus model group (FIG. 2); lower dose better in prevention groups
# Protocol: as §1, §2
# After the last intragastric administration, the mice are killed to strip and weigh the lung, and the lung index is the lung weight divided by mouse weight (FIG. 2). […] In general, the 3 compounds have better effect in decreasing the mortality of mice than the positive drug pirfenidone.
# [9] = cited from earlier work
# TGF-β1 [10] = details: cited from earlier work
smiles,measurement,setting,value
"CC[C@@H]1[C@H]2CCCCN3[C@H]2[C@@H](C[C@H]3[C@@H]2C[C@H](C)C(=O)O2)[C@H]2[C@@H]1OC(=O)[C@H]2C [Compound VII, Neotuberostemonine]",content of hydroxyproline in lung tissue,[1],effectively decrease the content of hydroxyproline
same,"lung tissue inflammation scores (HE stained, grade 0-3)","[2]; 30, 60 mg/kg, prevention and treatment groups (FIG. 4), lower dose better",significantly decrease the pulmonary inflammation
same,"pulmonary inflammation and injury, HE stained pathological changes","[2]; prevention groups and treatment groups (FIG. 3), lower dose (30 mg/kg) better than higher dose",significantly alleviate the pulmonary inflammation
same,content of TGF-β1 in lung tissue (ELISA),TGF-β1 [3],effectively decrease the content of TGF-β1
same,antitussive effect,[4],very good antitussive effect
same,"pulmonary inflammation, injury and fibrosis in HE and Masson stained pathological sections",[5],recover to nearly normal structure
same,"collagen deposition (Masson staining, integrated optical density)","[6]; 30, 60 mg/kg, prevention and treatment groups (FIG. 5, 6), lower dose better in prevention, higher dose better in treatment",significantly decrease collagen deposition
same,"effect in decreasing the collagen deposition, comparison among compounds","[6]; in general, Masson staining",slightly better than that of compound VIII
same,"antitussive activities, comparison among stemona tuberosa alkaloids",cough reflex pathway,similar
same,Survival rate,"[7]; prevention groups, 30 mg/kg intragastric to the 14th day",100%
same,Mortality (number of dead animals),"[7]; prevention groups, 30 mg/kg intragastric to the 14th day, 10 animals",0
same,Survival rate,"[7]; prevention groups, 60 mg/kg intragastric to the 14th day",80%
same,Mortality (number of dead animals),"[7]; prevention groups, 60 mg/kg intragastric to the 14th day, 10 animals",2
same,"protective effect on model mice (mortality), comparison among compounds","[7]; prevention groups, lower dose (30 mg/kg) better",more effective than compound VIII
same,Survival rate,"[7]; treatment groups, 30 mg/kg intragastric from the 8th to the 21th day",89%
same,Mortality (number of dead animals),"[7]; treatment groups, 30 mg/kg intragastric from the 8th to the 21th day, 18 animals",2
same,Survival rate,"[7]; treatment groups, 60 mg/kg intragastric from the 8th to the 21th day",78%
same,Mortality (number of dead animals),"[7]; treatment groups, 60 mg/kg intragastric from the 8th to the 21th day, 18 animals",4
same,lung index (lung weight divided by mouse weight),[8],significantly decrease the lung index
"Cc1ccc(=O)n(-c2ccccc2)c1 [Pirfenidone, pirfenidone, reference compound]",clinical side effects,[9],photosensitization
same,inhibition of pro-fibrogenic factors,TGF-β1 [10],can inhibit the pro-fibrogenic factors such as TGF-β1
same,Survival rate,"[7]; prevention groups, 300 mg/kg intragastric to the 14th day",70%
same,Mortality (number of dead animals),"[7]; prevention groups, 300 mg/kg intragastric to the 14th day, 10 animals",3
same,Survival rate,"[7]; treatment groups, 300 mg/kg intragastric from the 8th to the 21th day",67%
same,Mortality (number of dead animals),"[7]; treatment groups, 300 mg/kg intragastric from the 8th to the 21th day, 18 animals",6

# Reference: patent US9943524B2, “Use of alkaloid in preparing pharmaceutical compositions for preventing or treating pulmonary fibrosis” (China Pharmaceutical University, priority 2014, dated 2018)
